# Reference: US9662327B2 (AGIOS PHARMACEUTICALS, INC, priority 2011, dated 2017)
# pIC50: −log10 of the molar value.
# Molecular target: IDH1 R132H (Homo sapiens (Human), UniProt O75874, R132H)
# Test: Assays for IDH1 R132H Inhibitors (NADPH/aKG, resazurin detection)
# Format: biochemical
# Settings: IDH1 R132H enzyme, Table 2; read-out: IDHR132H Activity
# Procedure, shortened: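 Substrate mix held 8 uM NADPH plus 2 mM aKG; buffer was 20 mM Tris pH 7.5 with 150 mM NaCl, 10 mM MgCl2, 0.03% BSA. After 50 min room-temperature reaction, NADPH remaining was detected with 30 μM resazurin mix over 5 min.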
# IDH1 R132H, sequence (O75874 whole entry R132H): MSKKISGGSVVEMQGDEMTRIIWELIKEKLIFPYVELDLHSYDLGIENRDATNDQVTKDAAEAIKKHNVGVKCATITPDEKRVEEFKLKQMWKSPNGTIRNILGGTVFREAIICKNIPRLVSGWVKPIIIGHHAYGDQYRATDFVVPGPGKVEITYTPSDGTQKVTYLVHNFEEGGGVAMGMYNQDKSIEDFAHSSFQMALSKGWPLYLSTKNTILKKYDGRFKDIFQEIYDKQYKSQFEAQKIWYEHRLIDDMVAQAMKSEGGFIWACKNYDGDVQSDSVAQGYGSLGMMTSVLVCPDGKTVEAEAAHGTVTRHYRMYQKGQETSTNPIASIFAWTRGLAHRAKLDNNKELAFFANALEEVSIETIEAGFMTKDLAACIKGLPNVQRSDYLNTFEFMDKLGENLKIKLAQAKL
row,SMILES,pIC50
1,CC(C)[C@@H]1CN(c2nc(C3CC3)c3c(c2C#N)CC(C)(C)OC3)CCN1C(=O)Cc1cccnc1 [Compound 265],> 6.30
2,CC(C)[C@@H]1CN(c2nc(C3CC3)c3c(c2C#N)CC(C)(C)OC3)CCN1C(=O)C1CCOC1 (some centres unmarked) [Compound 266],6.00 to 6.30
3,"CSCCC(=O)N1CCN(c2nc(C(C)C)c3c(c2C#N)CC(C)(C)OC3)C[C@H]1C [Compound 267, (R)-8-isopropyl-3,3-dimethyl-6-(3-methyl-4-(3-(methylthio)propanoyl)piperazin-1-yl)-3,4-dihydro-1H-pyrano[3,4-c]pyridine-5-carbonitrile]",6.00 to 6.30
4,"COCCC(=O)N1CCN(c2nc(C(C)C)c3c(c2C#N)CC(C)(C)OC3)C[C@H]1C [Compound 268, (R)-8-isopropyl-6-(4-(3-methoxypropanoyl)-3-methylpiperazin-1-yl)-3,3-dimethyl-3,4-dihydro-1H-pyrano[3,4-c]pyridine-5-carbonitrile]",6.00 to 6.30
5,"CSCCC(=O)N1CCN(c2nc(C3CC3)c3c(c2C#N)CC(C)(C)OC3)C[C@H]1C(C)C [Compound 269, (R)-8-cyclopropyl-6-(3-isopropyl-4-(3-(methylthio)propanoyl)piperazin-1-yl)-3,3-dimethyl-3,4-dihydro-1H-pyrano[3,4-c]pyridine-5-carbonitrile]",> 6.30
6,"COCCC(=O)N1CCN(c2nc(C3CC3)c3c(c2C#N)CC(C)(C)OC3)C[C@H]1C(C)C [Compound 270, (R)-8-cyclopropyl-6-(3-isopropyl-4-(3-methoxypropanoyl)piperazin-1-yl)-3,3-dimethyl-3,4-dihydro-1H-pyrano[3,4-c]pyridine-5-carbonitrile]",> 6.30
7,CC(C)[C@@H]1CN(c2nc(C3CC3)c3c(c2C#N)CC(C)(C)OC3)CCN1C(=O)c1cccnc1 [Compound 271],5.00 to 6.00
8,CC1(C)Cc2c(C#N)c(N3CCN(C(=O)c4ccco4)[C@H](c4ccccc4)C3)nc(C3CC3)c2CO1 [Compound 272],6.00 to 6.30
9,CC1(C)Cc2c(C#N)c(N3CCN(C(=O)c4ccco4)[C@@H](c4ccccc4)C3)nc(C3CC3)c2CO1 [Compound 273],6.00 to 6.30
10,"CC1(C)Cc2c(C#N)c(N3CCN(C(=O)c4ccoc4)[C@H](c4ccccc4)C3)nc(C3CC3)c2CO1 [Compound 274, (R)-8-cyclopropyl-6-(4-(furan-3-carbonyl)-3-phenylpiperazin-1-yl)-3,3-dimethyl-3,4-dihydro-1H-pyrano[3,4-c]pyridine-5-carbonitrile]",5.00 to 6.00
11,CC1(C)Cc2c(C#N)c(N3CCN(C(=O)c4ccoc4)[C@@H](c4ccccc4)C3)nc(C3CC3)c2CO1 [Compound 275],5.00 to 6.00
12,CCOC(=O)C1CN(c2nc(C(C)C)c3c(c2C#N)CC(C)(C)OC3)CCN1C(=O)c1ccoc1 (centres unmarked) [Compound 276],6.00 to 6.30
13,"CC(C)[C@@H]1CN(c2nc(C3CC3)c3c(c2C#N)CC(C)(C)OC3)CCN1S(=O)(=O)c1cccs1 [Compound 284, (R)-8-cyclopropyl-6-(3-isopropyl-4-(thiophen-2-ylsulfonyl)piperazin-1-yl)-3,3-dimethyl-3,4-dihydro-1H-pyrano[3,4-c]pyridine-5-carbonitrile]",5.00 to 6.00
14,"CC(C)[C@@H]1CN(c2nc(C3CC3)c3c(c2C#N)CC(C)(C)OC3)CCN1S(=O)(=O)c1ccc(Cl)s1 [Compound 285, (R)-6-(4-(5-chlorothiophen-2-ylsulfonyl)-3-isopropylpiperazin-1-yl)-8-cyclopropyl-3,3-dimethyl-3,4-dihydro-1H-pyrano[3,4-c]pyridine-5-carbonitrile]",5.00 to 6.00
15,CC(C)[C@@H]1CN(c2nc(C3CC3)c3c(c2C#N)CC(C)(C)OC3)CCN1C(=O)NCCc1ccccc1 [Compound 286],5.00 to 6.00
16,CC(C)NC(=O)N1CCN(c2nc(C3CC3)c3c(c2C#N)CC(C)(C)OC3)C[C@H]1C(C)C [Compound 287],5.00 to 6.00
17,CC[C@@H]1CN(c2nc(C3CC3)c3c(c2C#N)CC(C)(C)OC3)CCN1C(=O)Cc1ccccn1 [Compound 290],5.00 to 6.00
18,CC[C@@H]1CN(c2nc(C3CC3)c3c(c2C#N)CC(C)(C)OC3)CCN1C(=O)c1cscn1 [Compound 293],5.00 to 6.00
19,CC[C@@H]1CN(c2nc(C3CC3)c3c(c2C#N)CC(C)(C)OC3)CCN1C(=O)Cc1cccnc1 [Compound 294],6.00 to 6.30
20,CC[C@@H]1CN(c2nc(C3CC3)c3c(c2C#N)CC(C)(C)OC3)CCN1C(=O)Cc1ccccc1OC [Compound 295],6.00 to 6.30
21,CC[C@@H]1CN(c2nc(C3CC3)c3c(c2C#N)CC(C)(C)OC3)CCN1C(=O)Cc1cccc(OC)c1 [Compound 296],6.00 to 6.30
22,"CC[C@@H]1CN(c2nc(C3CC3)c3c(c2C#N)CC(C)(C)OC3)CCN1C(=O)CCOC [Compound 297, (R)-8-cyclopropyl-6-(3-ethyl-4-(3-methoxypropanoyl)piperazin-1-yl)-3,3-dimethyl-3,4-dihydro-1H-pyrano[3,4-c]pyridine-5-carbonitrile]",> 6.30
23,"CCOC(=O)C1CN(c2nc(C(C)C)c3c(c2C#N)CC(C)(C)OC3)CCN1C(=O)c1ccco1 (centres unmarked) [Compound 298, ethyl 4-(5-cyano-8-isopropyl-3,3-dimethyl-3,4-dihydro-1H-pyrano[3,4-c]pyridin-6-yl)-1-(furan-2-carbonyl)piperazine-2-carboxylate]",5.00 to 6.00

# More lines, now with the values ahead:
row,pIC50,SMILES
1,5.00 to 6.00,"C[C@@H]1CN(c2nc(C3CCCCC3)c3c(c2C#N)CCOC3)CCN1C(=O)Cc1cccnc1 [Compound 260, (R)-8-cyclohexyl-6-(3-methyl-4-(2-(pyridin-3-yl)acetyl)piperazin-1-yl)-3,4-dihydro-1H-pyrano[3,4-c]pyridine-5-carbonitrile]"
2,5.00 to 6.00,"C[C@@H]1CN(c2nc(C3CCCCC3)c3c(c2C#N)CCOC3)CCN1C(=O)c1cnn2cccnc12 [Compound 261, (R)-8-cyclohexyl-6-(3-methyl-4-(pyrazolo[1,5-a]pyrimidine-3-carbonyl)piperazin-1-yl)-3,4-dihydro-1H-pyrano[3,4-c]pyridine-5-carbonitrile]"
3,5.00 to 6.00,"C[C@@H]1CN(c2nc(C3CCCCC3)c3c(c2C#N)CCOC3)CCN1C(=O)c1nccn1C [Compound 262, (R)-8-cyclohexyl-6-(3-methyl-4-(1-methyl-1H-imidazole-2-carbonyl)piperazin-1-yl)-3,4-dihydro-1H-pyrano[3,4-c]pyridine-5-carbonitrile]"
4,5.00 to 6.00,"C[C@@H]1CN(c2nc(C3CCCCC3)c3c(c2C#N)CCOC3)CCN1C(=O)C1CCOC1 (stereo partly drawn) [Compound 263, 8-cyclohexyl-6-((3R)-3-methyl-4-(tetrahydrofuran-3-carbonyl)piperazin-1-yl)-3,4-dihydro-1H-pyrano[3,4-c]pyridine-5-carbonitrile]"
5,5.00 to 6.00,"CSCCC(=O)N1CCN(c2nc(C3CCCCC3)c3c(c2C#N)CCOC3)C[C@H]1C [Compound 264, (R)-8-cyclohexyl-6-(3-methyl-4-(3-(methylthio)propanoyl)piperazin-1-yl)-3,4-dihydro-1H-pyrano[3,4-c]pyridine-5-carbonitrile]"
6,5.00 to 6.00,"CCOC(=O)C1CN(c2nc(C3CCCCC3)c3c(c2C#N)CCOC3)CCN1C(=O)c1ccoc1C (centres unmarked) [Compound 277, ethyl 4-(5-cyano-8-cyclohexyl-3,4-dihydro-1H-pyrano[3,4-c]pyridin-6-yl)-1-(2-methylfuran-3-carbonyl)piperazine-2-carboxylate]"
7,5.00 to 6.00,"CCOC(=O)C1CN(c2nc(C3CCCCC3)c3c(c2C#N)CCOC3)CCN1C(=O)CCOC (centres unmarked) [Compound 278, ethyl 4-(5-cyano-8-cyclohexyl-3,4-dihydro-1H-pyrano[3,4-c]pyridin-6-yl)-1-(3-methoxypropanoyl) piperazine-2-carboxylate]"
8,5.00 to 6.00,"Cc1ccccc1NC(=O)N1CCN(c2nc(C3CCCCC3)c3c(c2C#N)CCOC3)C[C@H]1C [Compound 279, (R)-4-(5-cyano-8-cyclohexyl-3,4-dihydro-1H-pyrano[3,4-c]pyridin-6-yl)-2-methyl-N-o-tolylpiperazine-1-carboxamide]"
9,5.00 to 6.00,"Cc1ccc(NC(=O)N2CCN(c3nc(C4CCCCC4)c4c(c3C#N)CCOC4)C[C@H]2C)cc1 [Compound 280, (R)-4-(5-cyano-8-cyclohexyl-3,4-dihydro-1H-pyrano[3,4-c]pyridin-6-yl)-2-methyl-N-p-tolylpiperazine-1-carboxamide]"
10,5.00 to 6.00,"C[C@@H]1CN(c2nc(C3CCCCC3)c3c(c2C#N)CCOC3)CCN1C(=O)Nc1ccc(F)cc1 [Compound 281, (R)-4-(5-cyano-8-cyclohexyl-3,4-dihydro-1H-pyrano[3,4-c]pyridin-6-yl)-N-(4-fluorophenyl)-2-methylpiperazine-1-carboxamide]"
11,5.00 to 6.00,"CCOc1ccc(NC(=O)N2CCN(c3nc(C4CC4)c4c(c3C#N)CC(C)(C)OC4)C[C@H]2C(C)C)cc1 [Compound 282, (R)-4-(5-cyano-8-cyclopropyl-3,3-dimethyl-3,4-dihydro-1H-pyrano[3,4-c]pyridin-6-yl)-N-(4-ethoxyphenyl)-2-isopropylpiperazine-1-carboxamide]"
12,5.00 to 6.00,CC(C)[C@@H]1CN(c2nc(C3CC3)c3c(c2C#N)CC(C)(C)OC3)CCN1C(=O)Nc1ccc(F)cc1 [Compound 283]
13,> 6.30,"CC(C)[C@@H]1CN(c2nc(C3CCC3)c3c(c2C#N)CC(C)(C)OC3)CCN1C(=O)c1ccoc1 [Compound 288, (R)-8-cyclobutyl-6-(4-(furan-3-carbonyl)-3-isopropylpiperazin-1-yl)-3,3-dimethyl-3,4-dihydro-1H-pyrano[3,4-c]pyridine-5-carbonitrile]"
14,> 6.30,"CC(C)[C@@H]1CN(c2nc(C3CCC3)c3c(c2C#N)CC(C)(C)OC3)CCN1C(=O)Cc1cccs1 [Compound 289, (R)-8-cyclobutyl-6-(3-isopropyl-4-(2-(thiophen-2-yl)acetyl)piperazin-1-yl)-3,3-dimethyl-3,4-dihydro-1H-pyrano[3,4-c]pyridine-5-carbonitrile]"
15,5.00 to 6.00,"COc1ccc(NC(=O)N2CCN(c3nc(C4CCCCC4)c4c(c3C#N)CCOC4)C[C@H]2C)cc1 [Compound 299, (R)-4-(5-cyano-8-cyclohexyl-3,4-dihydro-1H-pyrano[3,4-c]pyridin-6-yl)-N-(4-methoxyphenyl)-2-methylpiperazine-1-carboxamide]"
